# Measurements: patent US7202046B2, “Use of a fluorescent protein for detecting interaction between a target protein and its ligand” (priority 1997, dated 2007)
# “And” between values parts separate entries of the source, which are not always exact repeats. Equal values may be shown once. Read-outs that look alike come from different tables or passages of the source.
# Legend:
# [1] = tested on: fluorescent receptor NK2R-RF1; test: Displacement of 3H SR 48968 binding (competition experiment), HEK 293 cells expressing NK2R-RF1; design: species or system rat; settings: read-out: KI, displacement of 3H SR 48968, 1 nM 3H SR 48968, 25,000 cells, 4° C.
# Protocol: Each 500 μl sample contains 25,000 cells, 1 nM 3HSR 48968 and a non-radioactive ligand at various concentrations (from 1 nM to 10 μM). The incubation is carried out for one hour at 4° C. Filtration is carried out at the end of incubation, as described in 3b).
# NK2R-RF1 receptor = test: Fluorescence energy transfer between fluorescent ligand and NK2R-RF1 on HEK293 cells in suspension; type: binding, rat; settings: for Kd: 0 to 256 nM ligand, read-out: affinity value KD from amplitude of the fluorescence signal; for Kd / inhibition of real-time energy transfer between 100 nM NKA BO I and NK2R-RF1: 10^6 cells/ml; for Kd / detection of receptor-fluorescent ligand interaction signal (energy transfer) / inhibition of real-time energy transfer between 100 nM NKA BO I and NK2R-RF1: emission 510 nm; for reversal of the energy transfer signal by excess non-labeled ligand, at equilibrium: 1–10 μM non-labeled ligand after 100 nM NKA BO I; for detection of receptor-fluorescent ligand interaction signal (energy transfer): 100 nM fluorescent ligand, real time; for inhibition of real-time energy transfer between 100 nM NKA BO I and NK2R-RF1: 20 μM non-fluorescent ligand
# Protocol: The fluorescence experiments are carried out in a 1 ml tank fitted with a magnetic stirring system and placed in a Fluorolog spectrofluorimeter (SPEX) equipped with a 450 W xenon lamp (Osram) and Spex 1680 0.22 m (excitation) and Spex 1681 0.22 m (emission) monochromators. The cells or the membrane fragments are suspended in physiological buffer: 10 mM Hepes, 137.5 mM NaCl, 1.25 mM MgCl2, 1.25 mM CaCl2, 6 mM KCl, 5.6 mM glucose, 0.4 mM NaH2PO4, 0.1% (w/v) BSA, pH 7.4.
# The HEK293 cells expressing the NK2R-RF1 are suspended at a concentration of 1,000,000 cells/ml in Hepes physiological buffer (10 mM Hepes, 137.5 mM NaCl, 1.25 mM MgCl2, 1.25 mM CaCl2, 6 mM KCl, 5.6 mM glucose, 0.4 mM NaH2PO4, 0.1% (w/v) BSA, pH 7,4). The cells are then placed in a fluorescence tank at a concentration which can range from 100,000 to 1,000,000 cells/ml. […] The emission spectrum of the solution is again recorded. […] The appearance of a peak at 550–560 nm during the addition of the fluorescent ligand and a reduction in its intensity during the addition of non-labeled ligand are also detected. […] The signal is reversible by means of addition of a pharmacological agent capable of inhibiting the interaction between the ligand and its receptor.
# The same recordings can be made in real time. For this, the excitation wavelength is set at 460 nm and the emission wavelength is set at 510 nm. […] The final value of the fluorescence intensity can be higher than the initial value when the absorption of the fluorescent ligand contributes to the signal.
# wild-type NK2R receptor [2] = target: T1, wild-type NK2R receptor (Rattus norvegicus, UniProt P16610); test: Release of intracellular calcium (FURA 2), cells expressing pCEP4-NK2R WT; type: cell-based; settings: for inhibition of the NKA-elicited calcium response: antagonist (5 μM cyclopeptide) then 10 nM NKA
# T1 construct: expressed in transfected cells; host or cells: HEK 293 cells, construct pCEP4-NK2R
# T1 sequence (P16610 1-390): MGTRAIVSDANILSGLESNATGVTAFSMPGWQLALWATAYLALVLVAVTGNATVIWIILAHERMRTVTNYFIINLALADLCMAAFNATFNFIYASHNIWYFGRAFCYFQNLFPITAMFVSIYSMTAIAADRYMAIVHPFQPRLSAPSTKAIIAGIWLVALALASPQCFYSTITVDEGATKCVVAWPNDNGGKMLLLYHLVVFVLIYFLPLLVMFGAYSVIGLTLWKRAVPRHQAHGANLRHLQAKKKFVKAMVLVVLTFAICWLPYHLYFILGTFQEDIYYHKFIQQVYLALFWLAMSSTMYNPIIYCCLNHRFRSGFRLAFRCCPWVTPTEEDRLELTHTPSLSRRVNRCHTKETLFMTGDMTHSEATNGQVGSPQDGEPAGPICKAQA
# Protocol: (§1) The fluorescent calcium-chelating agent, FURA 2 acetyl methyl ester (Molecular Probes), dissolved in DMSO is diluted to a concentration of 3 μM in 10 mM Hepes, 137.5 mM NaCl, 1.25 mM MgCl2, 1.25 mM CaCl2, 6 mM KCl, 5.6 mM glucose, 0.4 mM NaH2PO4, 0.1% (w/v) BSA, pH 7.4 buffer. The cell culture medium is aspirated and then replaced with 7 to 10 ml of FURA 2 AM solution. The cells are placed in the CO2 incubator for 45 min. The medium is then aspirated, replaced with FURA-free Hepes buffer and the cells are replaced in the CO2 incubator for a further 15 min. The buffer is aspirated and the cells are then collected after they have been detached from the dish with a 5 mM EDTA, PBS solution for 5 min. After centrifugation at 1000×g for 5 min., the cell pellet obtained is re-suspended at a rate of 1×10^6 cells/ml in Hepes buffer.
# (§2) The calcium-release measurements are carried out at 37° C., in a spectrofluorimetiy tank containing a magnetic stirrer bar. The excitation wavelength is set at […] and the emission wavelength is set at 510 nm.
# NK2R-RF1 = test: Release of intracellular calcium (FURA 2), cells expressing pCEP4-NK2R-RF1; type: cell-based, rat; settings: for inhibition of the NKA-elicited calcium response: antagonist (5 μM cyclopeptide) then 10 nM NKA
# Protocol: as §1, §2
# wild-type NK2R receptor [3] = target: T1, wild-type NK2R receptor; test: Saturation binding of 3H SR 48968 to whole cells expressing wild-type NK2R; settings: two experiments
# Protocol: (§3) After incubation for 30 min. at room temperature, the samples are filtered through GF/C filters (Whatmann) pre-treated in 1% powdered milk in PBS (2.7 mM KCl, 1.47 mM KH2PO4, […], 8.06 mM Na2HPO4), rinsed twice with PBS (4 ml) and then counted in a scintillation cocktail.
# (§4) Each 500 μl sample contains 25,000 cells, and the fraction of bound ligand is less than 10% of the amount added to each tube. Filtration is carried out at the end of incubation, as described above.
# [4] = target: T2, fluorescent receptor NK2R-RF1 (Rattus norvegicus, UniProt P16610); test: Saturation binding of 3H SR 48968 to whole cells expressing NK2R-RF1 (EGFP fused at N-terminal); settings: two experiments
# T2 construct: fused on or other part: EGFP (from pEGFP C3-1) fused at the receptor's N-terminus, preceded by the signal peptide of the hen alpha7 nicotinic receptor subunit; Both are tag or targeting parts and are not part of the key
# Protocol: as §3, §4
# [5] = tested on: non-transfected HEK 293 cells; test: Release of intracellular calcium (FURA 2), non-transfected cells; type: cell-based
# Protocol: as §1, §2
# [6] = saturation curve, 25,000 cells, 4° C., 1 h 30 min, read-out: affinity value (KD)
compound,measurement,setting,value
CSCC[C@H](NC(=O)[C@H](CC(C)C)NC(=O)CNC(=O)[C@@H](NC(=O)[C@H](Cc1ccccc1)NC(=O)[C@H](CO)NC(=O)[C@H](CC(=O)O)NC(=O)[C@@H](NC(=O)[C@H](CCCCN)NC(=O)[C@H](Cc1c[nH]cn1)NCC(=O)NCCNC(=O)CCc1ccc2n1[B-](F)(F)[N+]1=C(c3ccccc3)C=C(c3ccccc3)C1=C2)[C@@H](C)O)C(C)C)C(N)=O [NKA BO I],Ki,[1],16 nM
same,Ki,[1]; listed as NKA-BO I,16.1 nM
same,Kd,NK2R-RF1 receptor; listed as NKA-BO I,24 nM
same,Kd,NK2R-RF1 receptor,20 to 30 nM
same,"change of EGFP fluorescence (510 nm) on addition of fluorescent ligand, at equilibrium","NK2R-RF1 receptor; 100 nM ligand, excitation 460 nm",extinction of the fluorescence of EGFP
CC(=O)NC1(c2ccccc2)CCN(CC[C@H](CN(C)C(=O)c2ccccc2)c2ccc(Cl)c(Cl)c2)CC1 [SR 48968],"reversal of the energy transfer signal by excess non-labeled ligand, at equilibrium",NK2R-RF1 receptor,return to the initial fluorescence
same,inhibition of the NKA-elicited calcium response,wild-type NK2R receptor [2],inhibited
same,inhibition of the NKA-elicited calcium response,NK2R-RF1,inhibited
CC(=O)NC1(c2ccccc2)CCN(CC[C@H](CN(C)C(=O)c2ccccc2)c2ccc(Cl)c(Cl)c2)CC1 [^3H SR 48968],Kd,wild-type NK2R receptor [3]; [6],1.05 nM and 0.78 nM
same,maximum binding value (B max),wild-type NK2R receptor [3]; saturation curve,"0.1 pMol/25,000 cells"
same,Kd,[4]; [6],0.8 nM and 0.92 nM
same,maximum binding (B max) value,[4]; saturation curve,"0.075 pMol/25,000 cells and 0.088 pMol/25,000 cells"
NKA Eos: eosin derivative of NKA (eosin-5-iodoacetamide),detection of receptor-fluorescent ligand interaction signal (energy transfer),NK2R-RF1 receptor,detection of an NK2R-RF1 receptor-fluorescent ligand interaction signal
NKA TR: neurokinin A labeled with sulforhodamine 101 acid chloride (Texas Red),detection of receptor-fluorescent ligand interaction signal (energy transfer),NK2R-RF1 receptor,detection of an NK2R-RF1 receptor-fluorescent ligand interaction signal
cyclo(-Gln-Trp-Phe-Gly-Leu-Met) (QWFGLM; cyclic; printed: Gln-Trp-Phe-Gly-Leu-Met) [NK2R antagonist cyclopeptide (Bachem)],inhibition of real-time energy transfer between 100 nM NKA BO I and NK2R-RF1,NK2R-RF1 receptor,inhibition
same,"reversal of the energy transfer signal by excess non-labeled ligand, at equilibrium",NK2R-RF1 receptor,return to the initial fluorescence
same,inhibition of the NKA-elicited calcium response,wild-type NK2R receptor [2],inhibited
same,inhibition of the NKA-elicited calcium response,NK2R-RF1,inhibited
neurokinin A [NKA],Ki,[1],2.1 nM
same,inhibition of real-time energy transfer between 100 nM NKA BO I and NK2R-RF1,NK2R-RF1 receptor,inhibition
same,"reversal of the energy transfer signal by excess non-labeled ligand, at equilibrium",NK2R-RF1 receptor,return to the initial fluorescence
same,effect of non-fluorescent ligand alone on the fluorescence emission spectrum,"NK2R-RF1 receptor; cells expressing NK2R-RF1, no fluorescent ligand",has no effect on the fluorescence emission spectrum
same,calcium release response elicited,"wild-type NK2R receptor [2]; 10 nM NKA, 37° C.",elicited
same,calcium release response elicited,"NK2R-RF1; 10 nM NKA, 37° C.",elicited
same,calcium release response,[5],does not elicit any response
